Measured values reported in ChEMBL document CHEMBL1201862, “PubChem BioAssay data set” (2004).
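These data come from cells grown in 96-well plates and exposed to compound for 48 hours at five concentrations. At the GI50, growth is halved.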 Activity calls are given as the source filed them. No stated cut-off is given here; in the data, active = GI50 up to about 1.1 µM and inactive = higher. Residues, ends and D or L forms follow the SMILES beside them. *: point of attachment. Ethyl(2-NMe3+) = C[N+](C)(C)CC*; Boc = CC(C)(C)OC(=O)*

What was measured:
Test in all cases: DTP human tumour cell line panel, 48 h
Malme-3M = system: Malme-3M
COLO 205 = system: COLO 205
ACHN = system: ACHN
HCT-15 = system: HCT-15
KM12 = system: KM12
HL-60 = system: HL-60
MCF7 = system: MCF7
Hs-578T = system: Hs-578T
786-0 = system: 786-0
MDA-MB-231 = system: MDA-MB-231
SK-MEL-28 = system: SK-MEL-28
SF-295 = system: SF-295
RXF 393 = system: RXF 393
UACC-62 = system: UACC-62
UO-31 = system: UO-31
U-251 = system: U-251
SNB-75 = system: SNB-75
MOLT-4 = system: MOLT-4
NCI/ADR-RES = system: NCI/ADR-RES
LOX IMVI = system: LOX IMVI

Measured: GI50

CC(NC(=O)C(Cc1ccc(OCC[N+](C)(C)C)cc1)NC(=O)OC(C)(C)C)C(=O)NC(Cc1ccccc1)C(=O)NCC(N)=O (stereo not given) (Boc-Y(Ethyl(2-NMe3+))AFG-NH2; configuration not given here)
> 100 µM: HCT-15
inactive: Malme-3M 20.9 µM | COLO 205 75.7 µM | ACHN 22.1 µM | KM12 > 100 µM | HL-60 > 100 µM | MCF7 > 100 µM | Hs-578T 22.4 µM | 786-0 10.4 µM | MDA-MB-231 2.75 µM | SK-MEL-28 > 100 µM | SF-295 3.8 µM | RXF 393 11.7 µM | UACC-62 25.9 µM | UO-31 65.3 µM | U-251 3.24 µM | SNB-75 13.6 µM | MOLT-4 > 100 µM | NCI/ADR-RES 36.9 µM | LOX IMVI 30.4 µM

CCOc1cc2c(cc1O)C(=O)C[C@@H]1[C@@H]2CC[C@]2(C)[C@@H](O)CC[C@@H]12
active: Malme-3M 0.294 µM | ACHN 0.168 µM | HL-60 0.185 µM | MCF7 0.132 µM | Hs-578T 0.163 µM | 786-0 0.177 µM | MDA-MB-231 0.525 µM | SK-MEL-28 0.19 µM | SF-295 0.158 µM | UACC-62 0.0682 µM | UO-31 0.482 µM | U-251 0.173 µM | SNB-75 0.106 µM | MOLT-4 0.172 µM | NCI/ADR-RES 0.0955 µM | LOX IMVI 0.189 µM
inactive: COLO 205 20.5 µM | KM12 2.69 µM | RXF 393 1.59 µM
0.0556 µM: HCT-15

CCOC(=O)c1cc2cc([N+](=O)[O-])ccc2oc1=O
> 100 µM: HCT-15
inactive: Malme-3M > 100 µM | COLO 205 > 100 µM | ACHN > 100 µM | KM12 > 100 µM | HL-60 99.5 µM | MCF7 62.1 µM | Hs-578T > 100 µM | 786-0 > 100 µM | MDA-MB-231 > 100 µM | SK-MEL-28 > 100 µM | SF-295 > 100 µM | RXF 393 > 100 µM | UACC-62 24.3 µM | UO-31 35.6 µM | U-251 > 100 µM | SNB-75 > 100 µM | MOLT-4 > 100 µM | NCI/ADR-RES > 100 µM | LOX IMVI > 100 µM

COC(=O)/C=C1/OC(c2ccccc2)=C(C)C1=O
4.79 µM: HCT-15
inactive: Malme-3M 13.3 µM | COLO 205 17.5 µM | ACHN 13 µM | KM12 14.1 µM | HL-60 1.97 µM | MCF7 3.81 µM | Hs-578T 27.5 µM | 786-0 10.2 µM | MDA-MB-231 4.86 µM | SK-MEL-28 16.8 µM | SF-295 13.3 µM | RXF 393 10.6 µM | UACC-62 4.12 µM | UO-31 13.8 µM | U-251 14.1 µM | SNB-75 23.6 µM | MOLT-4 3.28 µM | NCI/ADR-RES 20.9 µM | LOX IMVI 1.28 µM

CCN(CC)c1ccc2cc(-c3nc(O)c4ccccc4n3)c(=N)oc2c1
inactive: Malme-3M > 100 µM | COLO 205 > 100 µM | ACHN > 100 µM | KM12 > 100 µM | HL-60 > 100 µM | MCF7 > 100 µM | Hs-578T > 100 µM | 786-0 > 100 µM | MDA-MB-231 > 100 µM | SK-MEL-28 > 100 µM | SF-295 > 100 µM | RXF 393 > 100 µM | UACC-62 > 100 µM | UO-31 > 100 µM | U-251 > 100 µM | SNB-75 > 100 µM | MOLT-4 > 100 µM | NCI/ADR-RES > 100 µM | LOX IMVI > 100 µM
> 100 µM: HCT-15

CNc1cc(OCc2ccccc2)c(OC)cc1C(=O)N1CCC[C@H]1CO
inactive: Malme-3M > 100 µM | COLO 205 > 100 µM | ACHN > 100 µM | KM12 > 100 µM | HL-60 44.1 µM | MCF7 > 100 µM | Hs-578T > 100 µM | 786-0 > 100 µM | MDA-MB-231 > 100 µM | SK-MEL-28 > 100 µM | SF-295 > 100 µM | RXF 393 > 100 µM | UACC-62 > 100 µM | UO-31 63.2 µM | U-251 > 100 µM | SNB-75 > 100 µM | MOLT-4 > 100 µM | NCI/ADR-RES > 100 µM | LOX IMVI > 100 µM
> 100 µM: HCT-15

CC1OC(OC2C(O[C@H]3CC[C@@]4(C)C(=CC[C@H]5[C@@H]6C[C@@H]7O[C@]8(CC[C@@H](C)CO8)[C@@H](C)[C@@H]7[C@@]6(C)CC[C@@H]54)C3)OC(CO)C(OC3OC(CO)C(O)C3O)C2O)C(O)C(O)C1O (stereo not given in full)
0.895 µM: HCT-15
active: Malme-3M 0.877 µM | COLO 205 0.6 µM | ACHN 0.855 µM | KM12 0.912 µM | HL-60 0.964 µM | MCF7 0.774 µM | Hs-578T 0.805 µM | 786-0 0.673 µM | MDA-MB-231 0.8 µM | SK-MEL-28 0.605 µM | SF-295 0.745 µM | RXF 393 0.865 µM | UACC-62 0.805 µM | UO-31 0.798 µM | U-251 0.619 µM | SNB-75 0.724 µM | MOLT-4 0.785 µM | NCI/ADR-RES 0.91 µM | LOX IMVI 0.521 µM

C=CC[C@@]1(C)CCCCCCCCC[C@@](C)(CC=C)C1=O
29.4 µM: HCT-15
inactive: Malme-3M 25.7 µM | COLO 205 19.6 µM | ACHN 34.6 µM | KM12 30.1 µM | HL-60 20.7 µM | MCF7 38.8 µM | Hs-578T 18.9 µM | 786-0 31.3 µM | MDA-MB-231 28.8 µM | SK-MEL-28 34.1 µM | SF-295 21.1 µM | RXF 393 16.9 µM | UACC-62 27.9 µM | UO-31 53.6 µM | U-251 18.9 µM | SNB-75 31.5 µM | MOLT-4 20.4 µM | NCI/ADR-RES 32.7 µM | LOX IMVI 18.1 µM

CCOC1NC(=O)c2ccccc21 (stereo not given)
inactive: Malme-3M > 100 µM | COLO 205 > 100 µM | ACHN > 100 µM | KM12 > 100 µM | HL-60 > 100 µM | MCF7 > 100 µM | Hs-578T > 100 µM | 786-0 > 100 µM | MDA-MB-231 > 100 µM | SK-MEL-28 > 100 µM | SF-295 > 100 µM | RXF 393 > 100 µM | UACC-62 > 100 µM | UO-31 > 100 µM | U-251 > 100 µM | SNB-75 > 100 µM | MOLT-4 > 100 µM | NCI/ADR-RES > 100 µM | LOX IMVI > 100 µM
> 100 µM: HCT-15

COC(=O)C(Cc1ccc2c(c1)CCCC2)Cc1cc2c(cc1C(O)OC)CCC2 (stereo not given)
33.7 µM: HCT-15
inactive: Malme-3M 38.1 µM | COLO 205 37.7 µM | ACHN 67.1 µM | KM12 44.7 µM | HL-60 11.8 µM | MCF7 29.4 µM | Hs-578T 57.9 µM | 786-0 33.3 µM | MDA-MB-231 > 100 µM | SK-MEL-28 55 µM | SF-295 61.5 µM | RXF 393 24.3 µM | UACC-62 > 100 µM | UO-31 93.8 µM | U-251 49.4 µM | SNB-75 > 100 µM | MOLT-4 58.9 µM | NCI/ADR-RES 32.8 µM | LOX IMVI 30.4 µM

O=[N+]([O-])/C(Cl)=C(\Nc1ccccc1)C(Cl)=C(Cl)Cl
inactive: Malme-3M 18 µM | COLO 205 19.5 µM | ACHN 29.2 µM | KM12 12.9 µM | HL-60 20.9 µM | MCF7 14.3 µM | Hs-578T 34.3 µM | 786-0 27.5 µM | MDA-MB-231 34.4 µM | SK-MEL-28 36.8 µM | SF-295 33 µM | RXF 393 37.3 µM | UACC-62 26.2 µM | UO-31 40.7 µM | U-251 43.1 µM | SNB-75 2.19 µM | MOLT-4 33.3 µM | NCI/ADR-RES 16 µM | LOX IMVI 32.9 µM
25.4 µM: HCT-15

CCOP(=O)(CC(=O)C1CC1)OCC
inactive: Malme-3M > 100 µM | COLO 205 > 100 µM | ACHN > 100 µM | KM12 > 100 µM | HL-60 > 100 µM | MCF7 > 100 µM | Hs-578T > 100 µM | 786-0 > 100 µM | MDA-MB-231 > 100 µM | SK-MEL-28 > 100 µM | SF-295 > 100 µM | UACC-62 > 100 µM | UO-31 > 100 µM | U-251 > 100 µM | SNB-75 > 100 µM | MOLT-4 > 100 µM | NCI/ADR-RES > 100 µM | LOX IMVI > 100 µM
active: RXF 393 0.01 µM
> 100 µM: HCT-15

C=C1CC(O)C2C(=C)C(=O)OC2C2C(C)C(=O)CC12 (stereo not given)
inactive: Malme-3M 12 µM | COLO 205 7.33 µM | ACHN 5.32 µM | KM12 24.7 µM | HL-60 3.01 µM | MCF7 9.4 µM | Hs-578T 19.1 µM | 786-0 > 10 µM | MDA-MB-231 20.4 µM | SK-MEL-28 14.3 µM | SF-295 27.6 µM | RXF 393 4.73 µM | UACC-62 15.3 µM | UO-31 14.7 µM | U-251 23 µM | SNB-75 15.1 µM | MOLT-4 7.03 µM | NCI/ADR-RES 18.4 µM | LOX IMVI 20 µM
4.82 µM: HCT-15

CC(C)Oc1c(N(Cc2ccccc2)c2ccccc2C2SCCCS2)c(=O)c1=O
inactive: Malme-3M 2.9 µM | COLO 205 3.07 µM | ACHN 5.81 µM | KM12 3.21 µM | HL-60 3.98 µM | MCF7 4.16 µM | Hs-578T 3.44 µM | 786-0 4.41 µM | MDA-MB-231 5.08 µM | SK-MEL-28 11.2 µM | SF-295 2.2 µM | RXF 393 4.88 µM | UACC-62 4.89 µM | UO-31 6.67 µM | U-251 4.4 µM | SNB-75 2.51 µM | MOLT-4 3.63 µM | NCI/ADR-RES 1.75 µM | LOX IMVI 5.56 µM
3.71 µM: HCT-15
